In patent US20110201629A1, “CYCLOHEXYL AMIDE DERIVATIVES AS CRF RECEPTOR ANTAGONISTS” (priority 2010, published 2011):
pIC50: −log10 of the molar value. Structures can show the parent of a compound that is named as a salt.

Legend:
CRF-1 = biological target: T1, CRF-1 (UniProt P34998); assay: CRF-1 receptor antagonism, HTRF cAMP assay in CHO cells; type: cell-based, human; settings: inhibition of CRF induced cAMP response in CHO cells, EC50 concentration of CRF
T1 sequence (P34998 1-415): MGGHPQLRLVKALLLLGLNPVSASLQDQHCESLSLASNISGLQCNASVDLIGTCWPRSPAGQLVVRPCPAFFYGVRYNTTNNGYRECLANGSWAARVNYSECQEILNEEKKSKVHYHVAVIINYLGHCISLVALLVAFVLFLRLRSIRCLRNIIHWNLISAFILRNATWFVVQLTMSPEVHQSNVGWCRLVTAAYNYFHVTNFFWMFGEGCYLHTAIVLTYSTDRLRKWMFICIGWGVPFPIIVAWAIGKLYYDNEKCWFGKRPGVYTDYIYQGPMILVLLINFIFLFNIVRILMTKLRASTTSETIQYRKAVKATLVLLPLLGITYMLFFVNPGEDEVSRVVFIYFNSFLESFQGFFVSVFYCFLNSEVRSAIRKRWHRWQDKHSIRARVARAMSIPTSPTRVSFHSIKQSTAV
Method: (§1) The CRF-1 and CRF-2 receptor antagonistic activity of the agents of the invention has been determined in vitro in the following assay:
(§2) Chinese hamster ovary (CHO) cells expressing either the human or rat recombinant CRF-1 or human CRF-2α (Chen et al, Proc Natl Acad Sci USA 90, 8967-8971, 1993; Liaw et al, Endocrinology 137, 72-77, 1996) are propagated in Dulbecco's modified Eagle medium supplemented with 10% foetal calf serum, non-essential amino acids, 100 U/ml penicillin, 100 mg/l streptomycin and 1 g/l geneticin. CHO cells expressing the rat CRF-2β receptor (Wu et al, Endocrinology 148, 1675-1687, 2007) are propagated in HAM's-F12 Glutamax supplemented with 10% foetal calf serum, 100 IU/ml penicillin, 100 mg/l streptomycin, 600 μg/ml hygromycin, 10 μg/ml blasticidin and induced with 1 μg/ml of tetracyclin for 24 hours prior to experimentation. For cyclic AMP determinations the Homogeneous Time-Resolved Fluoresce (HTRF) cAMP dynamic 2 kit (Cisbio International, France) was used as per manufacturers' instructions. CHO cells, previously cryopreserved at 3×10^6 viable cells per ml of cell recovery media (Cat no. 12648-010, Invitrogen), were thawed, centrifuged for 7 mins at 1200 rpm and resuspended in serum free media to give a concentration of 0.5×10^6 cells per/ml. Compounds of the invention, prepared in DMSO, and subsequently diluted 50 fold in assay buffer (1× Hanks balanced salt solution, 0.2% (w/v) bovine serum albumin, 1.7 mM isobutylmethylxanthine and 10 mM Hepes, pH7.4) were then added onto the 384 well low volume black assay plate (Corning Inc, US, Cat. 3676). 2000 cells/well were then added to the assay plate further diluting the compound 2 fold and then the plate was incubated for 15 mins at room temperature. Following incubation, buffer containing a 5 times final concentration of agonist, typically r/h CRF is added to the plate and incubated for 30 min at room temperature. Finally, d2 dye labeled cAMP and cryptate labeled anti-cAMP antibody, both made in lysis buffer, are added to the plate followed by a settling period of 1 hour at room temperature. During the settling period cAMP produced by the cells competes with the d2 labelled cAMP for the anti-cAMP cryptate. The plate is read on the Pherastar (BMG, Germany). Increasing levels of endogenous cAMP produced by cells can be followed by a decrease of FRET fluorescent signal and vice versa. Values represented by a change in arbitrary fluorescence units are converted into cAMP concentrations by use of a standard curve, the reagents for which are supplied with the kit. Antagonist dose response curves (1 nM-31.6 μM) are constructed and tested in the presence of an EC50 concentration of CRF relevant to the receptor (hCRF-1=3 nM, hCRF-2α=2 nM, rCRF-1=1 nM and rCRF-2β=0.1 nM). IC50 values of antagonists are calculated by fitting the percent inhibition of CRF induced cAMP response by increasing concentrations of the antagonists. The fit is performed using the nonlinear logistic function of the Activitybase software package v 5.4.5.27 (IDBS, UK).

CRF-2 = biological target: T2, CRF-2 (UniProt Q13324); assay: CRF-2 receptor antagonism, HTRF cAMP assay in CHO cells; type: cell-based, human; settings: Biological data Table 2; inhibition of CRF induced cAMP response in CHO cells, EC50 concentration of CRF
T2 sequence (Q13324 1-411): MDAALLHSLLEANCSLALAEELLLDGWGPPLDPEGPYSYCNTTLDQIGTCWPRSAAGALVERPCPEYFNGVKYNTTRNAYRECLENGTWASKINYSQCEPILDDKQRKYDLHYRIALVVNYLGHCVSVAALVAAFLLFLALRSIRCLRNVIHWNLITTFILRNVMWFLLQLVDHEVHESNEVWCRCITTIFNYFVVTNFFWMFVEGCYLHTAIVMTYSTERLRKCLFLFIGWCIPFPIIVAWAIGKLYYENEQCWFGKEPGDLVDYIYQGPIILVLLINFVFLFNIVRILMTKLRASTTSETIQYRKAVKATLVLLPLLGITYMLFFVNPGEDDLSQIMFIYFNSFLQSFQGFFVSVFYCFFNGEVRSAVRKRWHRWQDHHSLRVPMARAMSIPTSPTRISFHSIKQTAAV
Method: as §1, §2

Row | SMILES | pIC50 (CRF-1; Biological data Table 1) | pIC50 (CRF-1; Biological data Table 2) | pIC50 (CRF-2)
1 | O=C(N[C@H]1CC[C@H](Cn2c(=O)[nH]c3ccccc32)CC1)c1cc(C(F)(F)F)ccc1Cl [Example 3.7, Trans-2-Chloro-N-[4-(2-oxo-2,3-dihydro-bcnzoimidazol-1-ylmethyl)-cyclohexyl]-5-trifluoromethyl-benzamide] | 7.04 |  | 
2 | COc1cccc2c1N(C[C@H]1CC[C@H](NC(=O)c3cc(C(F)(F)F)ccc3Cl)CC1)C(=O)C2(C)C [Example 2.18, Trans-2-Chloro-N-[4-(7-methoxy-3,3-dimethyl-2-oxo-2,3-dihydro-indol-1-ylmethyl)-cyclohexyl]-5-trifluoromethyl-benzamide] |  | 7.30 | 5.77
3 | COc1ccc2c(c1)C(C)(C)C(=O)N2C[C@H]1CC[C@H](NC(=O)c2cc(C(F)(F)F)ccc2Cl)CC1 [Example 2.7, Trans-2-Chloro-N-[4-(5-methoxy-3,3-dimethyl-2-oxo-2,3-dihydro-indol-1-ylmethyl)-cyclohexyl]-5-trifluoromethyl-benzamide] | 6.78 |  | 
4 | CC1(C)C(=O)N(C[C@H]2CC[C@H](NC(=O)c3cc(Cl)ccc3Cl)CC2)c2ccccc21 [Example 5.2, Trans-2,5-Dichloro-N-[4-(3,3-dimethyl-2-oxo-2,3-dihydro-indol-1-ylmethyl)-cyclohexyl]-benzamide] | 6.90 |  | 
5 | C[C@]1(F)C(=O)N(C[C@H]2CC[C@H](NC(=O)c3cc(C(F)(F)F)ccc3Cl)CC2)c2ccccc21 [Example 2.9, Trans-2-Chloro-N-[4-((R)-3-fluoro-3-methyl-2-oxo-2,3-dihydro-indol-1-ylmethyl)-cyclohexyl]-5-trifluoromethyl-benzamide] | 7.80 |  | 
6 | Cn1c(=O)n(C[C@H]2CC[C@H](NC(=O)c3cc(C(F)(F)F)ccc3Cl)CC2)c2ccccc21 [Example 3.8, Trans-2-Chloro-N-[4-(3-methyl-2-oxo-2,3-dihydro-benzoimidazol-1-ylmethyl)-cyclohexyl]-5-trifluoromethyl-benzamide] | 7.43 |  | 
7 | Cn1c(=O)n(C[C@H]2CC[C@H](NC(=O)c3cc(Cl)ccc3Cl)CC2)c2ccccc21 [Example 4.2, Trans-2,5-Dichloro-N-[4-(3-methyl-2-oxo-2,3-dihydro-benzoimidazol-1-ylmethyl)-cyclohexyl]-benzamide trifluoroacetate] | 6.93 |  | 
8 | Cc1ncc(Cl)cc1C(=O)N[C@H]1CC[C@H](CN2C(=O)C(C)(C)c3cccnc32)CC1 [Example 2.3, Trans-5-chloro-N-[4-(3,3-dimethyl-2-oxo-2,3-dihydro-pyrrolo[2,3-b]pyridin-1-ylmethyl)-cyclohexyl]-2-methyl-nicotinamide] | 6.62 |  | 
9 | COc1cc2c(cn1)C(C)(C)C(=O)N2C[C@H]1CC[C@H](NC(=O)c2cc(C(F)(F)F)ccc2Cl)CC1 [Example 2.8, Trans-2-Chloro-N-[4-(6-methoxy-3,3-dimethyl-2-oxo-2,3-dihydro-pyrrolo[3,2-c]pyridin-1-ylmethyl)-cyclohexyl]-5-trifluoromethyl-benzamide] | 6.46 |  | 
10 | Cc1ncc(Cl)cc1C(=O)N[C@H]1CC[C@H](Cn2c(=O)n(C)c3nccc(C)c32)CC1 [Example 2.43, Trans-5-Chloro-N-[4-(3,7-dimethyl-2-oxo-2,3-dihydro-imidazo[4,5-b]pyridin-1-ylmethyl)-cyclohexyl]-2-methyl-nicotinamide] | 6.38 |  | 
11 | Cn1c(=O)n(C[C@H]2CC[C@H](NC(=O)c3cc(C(F)(F)F)ccc3Cl)CC2)c2ncccc21 [Example 3.6, Trans-2-Chloro-N-[4-(1-methyl-2-oxo-1,2-dihydro-imidazo[4,5-b]pyridin-3-ylmethyl)-cyclohexyl]-5-trifluoromethyl-benzamide] | 6.84 |  | 
12 | CC1(C)C(=O)N(C[C@H]2CC[C@H](NC(=O)c3cc(C(F)(F)F)ccc3Cl)CC2)c2ccc(F)cc21 [Example 3.3, Trans-2-Chloro-N-[4-(5-fluoro-3,3-dimethyl-2-oxo-2,3-dihydro-indol-1-ylmethyl)-cyclohexyl]-5-trifluoromethyl-benzamide] | 7.55 |  | 
13 | O=C(N[C@H]1CC[C@H](CN2C(=O)Cc3cc(Cl)ccc32)CC1)c1cc(C(F)(F)F)ccc1Cl [Example 3.1, Trans-2-Chloro-N-[4-(5-chloro-2-oxo-2,3-dihydro-indol-1-ylmethyl)-cyclohexyl]-5-trifluoromethyl-benzamide] | 6.69 |  | 
14 | O=C(N[C@H]1CC[C@H](CN2C(=O)Cc3ccc(Cl)cc32)CC1)c1cc(C(F)(F)F)ccc1Cl [Example 1.1, Trans-2-Chloro-N-[4-(6-chloro-2-oxo-2,3-dihydro-indol-1-ylmethyl)-cyclohexyl]-5-trifluoromethyl-benzamide] | 7.19 |  | 
15 | O=C(N[C@H]1CC[C@H](CN2C(=O)C(F)(F)c3ccc(Cl)cc32)CC1)c1cc(C(F)(F)F)ccc1Cl [Example 2.1, Trans-2-chloro-N-[4-(6-chloro-3,3-difluoro-2-oxo-2,3-dihydro-indol-1-ylmethyl)-cyclohexyl]-5-trifluoromethyl-benzamide] | 6.83 |  | 
16 | O=C(N[C@H]1CC[C@H](CN2C(=O)C3(CC3)c3cc(F)ccc32)CC1)c1cc(C(F)(F)F)ccc1Cl [Example 2.5, Trans-2-chloro-N-{-4-((5′-fluoro-2′-oxospiro[cyclopropane-1,3′-indoline]-1′-yl)methyl)cyclohexyl}-5-(trifluoromethyl)benzamide] | 8.05 |  | 
17 | C[C@@]1(F)C(=O)N(C[C@H]2CC[C@H](NC(=O)c3cc(C(F)(F)F)ccc3Cl)CC2)c2ccccc21 [Example 2.10, Trans-2-Chloro-N-[4-((S)-3-fluoro-3-methyl-2-oxo-2,3-dihydro-indol-1-ylmethyl)-cyclohexyl]-5-trifluoromethyl-benzamide] | 6.70 |  | 
18 | O=C(N[C@H]1CC[C@H](CN2C(=O)Cc3cccnc32)CC1)c1cc(C(F)(F)F)ccc1Cl [Example 2.4, Trans-2-chloro-N-[4-(2-oxo-2,3-dihydro-pyrrolo[2,3-b]pyridin-1-ylmethyl)-cyclohexyl]-5-trifluoromethyl-benzamide] | 6.05 |  | 
19 | Cc1ncc(C(F)(F)F)cc1C(=O)N[C@H]1CC[C@H](CN2C(=O)C(C)(C)c3ccccc32)CC1 [Example 2.52, Trans-N-[4-(3,3-Dimethyl-2-oxo-2,3-dihydro-indol-1-ylmethyl)-cyclohexyl]-2-methyl-5-trifluoromethyl-nicotinamide] | 6.21 |  | 
20 | CCn1c(=O)n(C[C@H]2CC[C@H](NC(=O)c3cc(Cl)cnc3C)CC2)c2ccncc21 [Example 2.42, Trans-5-Chloro-N-[4-(3-ethyl-2-oxo-2,3-dihydro-imidazo[4,5-c]pyridin-1-ylmethyl)-cyclohexyl]-2-methyl-nicotinamide] | 6.56 |  | 
